The test system of assay [1] is carrageenan-induced pleurisy. Briefly: Test C: Carrageenan-induced pleurisy in rats. Type of assay: in vivo, rat. As to conditions: 24 h and 48 h, leukocytes harvested at 72 h; for activity in Test C at 30 mg/kg: 30 mg/kg p.o. at challenge; for activity in Test C at 10 mg/kg or less: 10 mg/kg or less p.o. at challenge. As to the method:
The most advantageous compounds of formula I were active in Test A and also in the following test. Carrageenan-induced pleurisy in rats was carried out as described by Ackerman et al. J. Pharmacol. Exp. Therap. 1980, 215, 588-595. Migrating leukocytes were harvested by lavage of the thoracic cavity 72 h after injection of 0.3 ml 1% λ-carrageenan in sterile isotonic saline. Test compounds were administered p.o. at the time of challenge and 24 h and 48 h thereafter.

The subject of assay [2] is carrageenan-induced paw oedema. The assay is described as follows: Test B: Carrageenan-induced rat paw oedema test. In kind it is in vivo. The settings on record: inhibition of paw oedema, 100 mg/kg oral, 3 h after carrageenan. The protocol: Test B was carried out in the following way:
Carrageenan-induced rat paw oedema test
Female rats, weight range 125-150 g were fasted overnight. One of the hind legs of each animal was marked with a line at the connection between the cuboid/navicular and calcaneus/talus bones. Groups of six rats were orally dosed at 10 ml/kg, in random order, with a given dose of the test compound given as a solution or suspension in 10% (w/v) aqueous acacia solution.
One hour after dosing, 0.1 ml of 1% (w/v) sterile carrageenan λ in normal saline was injected deeply into the plantar surface of the marked hind foot of each rat. The volume of the foot (up to the marked line) was measured immediately after injection using duplicate water displacement readings. Three hours after injection the foot volume was measured again and the percentage increase in foot volume relative to the initial reading was calculated.
The increase in foot volume (i.e. the degree of oedema) in drug treated animals when compared with that in the drug untreated control gave the degree of inhibition of paw oedema by the drug.
Compounds were considered to be active in this test if they produced a statistically significant (typically 20% or greater) inhibition of paw oedema in at least two out of three tests after oral dosing at 100 mg/kg. Statistical significance was assessed using the Student's t test for single dose studies and Dunnett's test for multiple dose studies. More advantageous compounds were active in both Tests A and B,
For orientation: In the carrageenan paw model, swelling and tenderness develop within hours.

In assay [3] the test system is arachidonic acid release from zymosan stimulated macrophages. The assay is described as follows: Test A: Inhibition of Arachidonic Acid Release from Zymosan Stimulated Macrophages. Type of assay: cell-based, mice (female MF1). As to conditions: Mus musculus, Macrophage; peritoneal macrophages labelled with [3H]-arachidonic acid, zymosan stimulus, 5 h; tested at 100, 50, 20, 10, 5 and 1 μM. As to the method: Test A was carried out in the following way:
Inhibition of Arachidonic Acid Release from Zymosan Stimulated Macrophages
Female MF1 mice (weighing 20 to 25 g) were killed using a rising concentration of CO2. The mice were laid on their backs and the abdomens wiped with 70% alcohol. The skin was pulled back, exposing the peritoneal wall. Medium A (5 ml) (see below) was injected into the peritoneal cavity of each mouse followed by approximately 1 ml of air using a 20 ml syringe and a 21 G×40 mm needle in order to form a suspension of macrophage cells. The medium and cells were then removed using a 19 G×40 mm needle. The resulting suspension was returned to a sterile beaker kept on ice. The extracts from all the mice were pooled and this pooled cell suspension was counted using a Coulter counter and adjusted to a final cell count of 1-1.3×10^6 cells/ml prior to labelling with [^3 H]-arachidonic acid. Typically five mice provided sufficient cells for each multiwell plate.
Sufficient [^3 H]-arachidonic acid in ethanol to give a final concentration of 1.6 μCi/ml (equivalent to 40 μCi/plate) was blown to dryness under nitrogen. The arachidonic acid was then resuspended in 1 or 2 ml of the cell suspension which was then mixed with the remainder of the cell suspension in a centrifuge bottle.
The following day, non-adherent cells were removed by washing 3 times with sterile phosphate buffered saline (PBS). The adherent peritoneal macrophages were then cultured for a further 24 hours in the presence or absence of drugs, in medium B (see below) at 37° in a 5% CO2 atmosphere in order to measure the effects of drugs on the spontaneous release of arachidonic acid in the absence of stimulus. After this incubation, supernatants were removed to give medium 1 and stored in sealed multi-well plates at 4° C. prior to scintillation counting. […] The supernatants were replaced by fresh medium C containing fresh drug and a stimulus. Three drugs were tested at six concentrations (100, 50, 20, 10, 5 and 1 μM) in replicates of four on each plate. The other wells contained controls consisting of a positive control (e.g. dexamethasone), medium (B) only and medium C only.
Incubation was then continued for a further 5 hours, whereupon the supernatants were collected to give medium 2 and the adherent cells washed with PBS. The cells were then lysed with 100 μl of 0.1% TRITON® X100 in a 0.1% solution of bovine serum albumin in 0.9% saline and mechanically disrupted to give cell lysates. These supernatants (medium 2) and cell lysates (Cells) were also stored in sealed multi-well plates at 4° C. prior to scintillation counting. 200 μl aliquots of media, or 100 μl aliquots of cells were counted using 2 ml of OPTIPHASE "HIGH SAFE" (Trademark of LKB) as scintillant.
The percentage of arachidonic acid released was calculated using the mean values for each group of 4 wells in the following equation. [formula]
The percentage inhibition of arachidonic acid release caused by a drug may then be calculated using the following equation. [formula]
Medium A (for peritoneal lavage)
This mixture was transferred to sterile flask and made up to 400 ml with sterile water.
Medium B (for cell culture)
This mixture was transferred to a sterile beaker and made up to 650 ml with sterile water.
Medium C=medium B+stimulant (zymosan)
The zymosan stimulant was prepared as follows:--zymosan (200 mg) (supplied by Sigma) was added to PBS (20 ml). The mixture was boiled for 30 minutes and the volume restored to 20 ml with water. The zymosan was harvested by centrifugation at 500×g for 5 minutes, washed twice by resuspension in PBS (10 ml) and centrifugation. After the final separation, the zymosan was resuspended in 20 ml PBS and stored as 1 ml aliquots at -20° C.

In general, inhibition refers to the share of the control response that was lost under treatment. A word on the IC50: it is the concentration that inhibits the measured activity by half. A low value points to inhibition by little substance. `CN(C)Cc1ccccc1OCCN(C)Cc1ccccc1` [Example 20, 2-[2-(N-Benzyl-N-methylamino)ethoxy]-N,N-dimethylbenzylamine]: the “activity in Test C at 30 mg/kg” value in assay [1] is given as “active”. Besides, in assay [2], the inhibition at 100 mg/kg amounted to 64%. In assay [3], the IC50 was 36 µM.
With `CN(C)Cc1cc(F)ccc1OCCN(C)Cc1ccccc1` [Example 3, 2-[2-(N-Benzyl-N-methylamino)ethoxy]-5-fluoro-N,N-dimethylbenzylamine], the “activity in Test C at 30 mg/kg” value in assay [1] is recorded as “active”. This molecule also yielded an inhibition at 100 mg/kg in assay [2] of 52%. This molecule also registered an IC50 in assay [3] of 20 µM.
On to `CN(C)Cc1c(OCCN(C)Cc2ccccc2)ccc2ccccc12` [Example 8, N-Benzyl-2-[1-(dimethylaminomethyl)naphth-2-yloxy]-N-methylethylamine], for which the “activity in Test C at 30 mg/kg” value in assay [1] is “active”. In assay [2], this molecule displayed an inhibition at 100 mg/kg of 23%. For the same molecule, the IC50 in assay [3] was 13 µM.
For `CN(C)Cc1c(OCCN(C)Cc2ccccc2)ccc(Cl)c1Cl` [Example 13, 2-[2-(N-Benzyl-N-methylamino)ethoxy]-5,6-dichloro-N,N-dimethylbenzylamine], the “activity in Test C at 30 mg/kg” value in assay [1] is reported as “active”. This molecule also returned an inhibition at 100 mg/kg in assay [2] of 70%. Moreover, in assay [3], the IC50 was found to be 8 µM.
For `CN(C)Cc1ccc(Cl)cc1OCCN(C)Cc1ccccc1` [Example 6, 2-[2-(N-Benzyl-N-methylamino)ethoxy]-4-chloro-N,N-dimethylbenzylamine] the same measures were “active”, 18% and 15 µM.
With `CN(C)Cc1c(Cl)cccc1OCCN(C)Cc1ccccc1` [Example 1, 2-[2-(N-benzyl-N-methylamino)ethoxy]-6-chloro-N,N-dimethylbenzylamine], the “activity in Test C at 10 mg/kg or less” value in assay [1] is on record as “active”. Besides, 100 mg/kg produced 70% inhibition in assay [2]. In addition, in assay [3], the IC50 is 15 µM.
For `CN(C)Cc1cc(Cl)ccc1OCCN(C)Cc1ccccc1` [Example 21, 2-[2-(N-Benzyl-N-methylamino)ethoxy]-5-chloro-N,N-dimethylbenzylamine] the same measures were “active”, 31% and 22 µM.
Consider `CN(CCOc1ccc(Cl)cc1CN1CCCCC1)Cc1ccccc1` [Example 11, N-Benzyl-2-[4-chloro-2-(piperidinomethyl)phenoxy]-N-methylethylamine], for which the “activity in Test C at 30 mg/kg” value in assay [1] was “active”. Moreover, the inhibition at 100 mg/kg in assay [2] is 47%. This molecule also registered an IC50 in assay [3] of 10 µM.
For `CN(C)Cc1ccccc1OCCN(C)Cc1ccc(Cl)cc1` [Example 17, 2-{2-[N-(4-Chlorobenzyl)-N-methylamino]ethoxy}-N,N-dimethylbenzylamine], the “activity in Test C at 10 mg/kg or less” value in assay [1] is recorded as “active”. The molecule further showed an inhibition at 100 mg/kg in assay [2] of 36%. The IC50 in assay [3] was found to be 13 µM.

These data come from patent US5736568A, “2-(aminoalkoxy) phenylalkylamines with antiinflammatory activity” (Knoll Aktiengesellschaft, priority 1994, dated 1998).
